The values that follow come from EP2842965A1, “Neuromedin U analogs comprising serum albumin binding amino acid residue” (Gubra ApS, priority 2013, dated 2015).

Broadly, the EC50 is the concentration at which the effect is half-maximal. Low readings indicate a more potent agent, high ones a less potent agent.

For this assay, the target named is T1, Neuromedin U receptor 1 (NMUR1) (Homo sapiens, UniProt Q9HB89).
T1 construct: expressed in transfected cells; host or cells: HEK293 cells, transient calcium phosphate transfection
T1 sequence (Q9HB89 1-426): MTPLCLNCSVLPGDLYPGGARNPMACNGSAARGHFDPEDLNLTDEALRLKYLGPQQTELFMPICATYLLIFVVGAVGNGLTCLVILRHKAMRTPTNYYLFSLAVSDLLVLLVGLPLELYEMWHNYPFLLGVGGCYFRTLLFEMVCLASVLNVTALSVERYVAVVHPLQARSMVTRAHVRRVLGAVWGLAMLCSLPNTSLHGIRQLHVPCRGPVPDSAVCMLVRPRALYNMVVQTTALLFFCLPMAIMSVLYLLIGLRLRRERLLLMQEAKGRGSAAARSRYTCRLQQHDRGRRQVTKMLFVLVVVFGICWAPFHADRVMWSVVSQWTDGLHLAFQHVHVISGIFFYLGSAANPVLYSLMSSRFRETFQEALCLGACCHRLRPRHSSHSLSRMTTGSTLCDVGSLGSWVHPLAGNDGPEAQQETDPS
The assay can be described thus: Functional assay (IP3 SPA-ysi assay) in HEK293 cells transfected with NMUR1. The conditions noted are these: HEK293 cells transiently transfected with NMUR1; head says cAMP, method describes IP3 SPA readout. In kind it is cell-based. Here is the method:
All compounds were dissolved in dimethyl sulfoxide (DMSO), and then water was added (total DMSO conc. was 80%). The stock concentration was 1 mM for all the compounds. Stocks were alliquoted and frozen -20°C.
The day before each assay a new standard row was prepared by dilution of the stock solution in assay buffer (1 mM acetic acid + 0.1% bovine serum albumin (BSA)). The following concentrations were prepared (depending on the ligand potency): 10^-5, 10^-6, 10^-7, 10^-7.5, 10^-8, 10^-8.5, 10^-9, 10^-10, 10^-11, 10^-12 M.
Cell cultures: The HEK293 cells are grown in (DMEM31966 glutamax supplemented with 10% FBS (fetal bovine serum) and 1% penicillin G and streptomycin) and incubated at 37°C with 10% CO2 in a humidified atmosphere. The cells were split as follows. HEK293 cells approximately 80% confluent was used. The cells were removed from the bottom of the bottle by removing the media (DMEM31966 glutamax supplemented with 10% FBS and 1% penicillin G and streptomycin), rinsed with 5 mL phosphate buffered saline (PBS) and shaken gently. […]
IP3 SPA-ysi assay: The media was removed and the plates were washed with 200 µL of Hank's balanced salt solution (HBSS) (Gibco, Life Technologies). […] The plates were sealed and shaken on high speed for 30 min, then centrifuged for 5 min at 1500 rpm and counted with 8 hours delay in the top counter. […]

Starred links: 1 amine or outer side, 2 acyl side, 3 side chain; linkers in the order of their positions; H or OH if unused. Residues, ends and D or L forms follow the SMILES beside them. Groups on a side chain read outwards from the residue. *: point of attachment. γGlu = O=C(O)[C@H](CCC(=O)[*:2])N[*:1]; Palmitoyl = CCCCCCCCCCCCCCCC(=O)*

Compound `CCCCCCCCCCCCCCCC(=O)N[C@@H](CCC(=O)NCCCC[C@H](NC(=O)[C@H](CCC(=O)O)NC(=O)[C@H](CC(=O)O)NC(=O)[C@@H](NC(=O)[C@H](CCCNC(=N)N)NC(=O)[C@@H](N)Cc1ccccc1)C(C)C)C(=O)N[C@@H](Cc1ccccc1)C(=O)N[C@@H](CCC(N)=O)C(=O)N[C@@H](CO)C(=O)N1CCC[C@H]1C(=O)N[C@@H](Cc1ccccc1)C(=O)N[C@@H](C)C(=O)N[C@@H](CO)C(=O)N[C@@H](CCC(N)=O)C(=O)N[C@@H](CO)C(=O)N[C@@H](CCCNC(=N)N)C(=O)NCC(=O)N[C@@H](Cc1ccc(O)cc1)C(=O)N[C@@H](Cc1ccccc1)C(=O)N[C@@H](CC(C)C)C(=O)N[C@@H](Cc1ccccc1)C(=O)N[C@@H](CCCNC(=N)N)C(=O)N1CCC[C@H]1C(=O)N[C@@H](CCCNC(=N)N)C(=O)N[C@@H](CC(N)=O)C(N)=O)C(=O)O` [SEQ ID NO 14] (H-FRVDEK([γGlu-Palmitoyl])FQSPFASQSRGYFLFRPRN-NH2) registered a half-maximal effective concentration (EC50) of 51.4 nM.
